Test results reported in patent publication US11052082B2 (priority 2012, dated 2021).
“Also recorded” adds a separate entry of the source. Counter-ions that a name gives are not always drawn. Peptide text beside a SMILES is read from it. * marks the point of attachment. Cbz = O=C(OCc1ccccc1)*; CH2F = FC*

What was measured:
glioblastoma cells = assay: Apoptosis / cell death in glioblastoma cells (opioid comparison, naloxone); format: cell-based; details: 60 μg/mL naloxone, 3 μg/mL D,L-methadone, 0.1 μg/mL doxorubicin; 120 h and 144 h
[1] = system: caspase-2, caspase-9, caspase-3, PARP, XIAP, Bcl-xL in BCP-ALL-cell line Tanoue; assay: Western blot analysis of apoptosis effectors in Tanoue; format: cell-based, human; details: 60 μg/mL naloxone; 96 h
[2] = system: caspases, PARP, XIAP, Bcl-xL in glioblastoma cells A172; assay: Western blot of apoptosis effectors in A172; format: cell-based
glioblastoma cells A172 = assay: Apoptosis / cell death in glioblastoma cells A172; format: cell-based; details: for effect on apoptosis induced by combination treatment with D,L-methadone and doxorubicin: 100 μg/mL naloxone or 25 μM IBMX, 3 μg/mL D,L-methadone, 0.3 μg/mL doxorubicin, 120 h
[3] = system: Trastuzumab resistant breast cancer cells JIMT-1; assay: Apoptosis / cell death in JIMT-1 breast cancer cells; format: cell-based, human
[4] = Tolerability (body weight, maximum tolerated dose) in ALL-SCID6 xenograft mice; details: same regimen as tumour growth study
BCP-ALL-cell line Tanoue [5] = assay: Doxorubicin uptake and efflux, Tanoue; format: cell-based, human
[6] = system: leukemia cancer cells (Nalm-6), pancreatic cancer cells (Colo357), ovarian cancer cells (A2780); assay: Sensitization for etoposide or cisplatin treatment; format: cell-based; details: 0.03 μg/mL etoposide or 0.3 μg/mL cisplatin; D,L-methadone 10, 3, 1 μg/mL; 120 to 144 h
[7] = system: BCP-ALL-cell lines (Tanoue, Reh, Nalm6); assay: Apoptosis induction in BCP-ALL-cell lines; format: cell-based, human; details: D,L-methadone alone; 120 h
pre-B-ALL-SCID = assay: Apoptosis induction in xenograft-derived BCP-ALL cells; format: cell-based, human; details: therapeutic concentrations of D,L-methadone alone; moderate opioid-receptor level
[8] = system: glioblastoma cell line A172; assay: Doxorubicin uptake and efflux, A172; format: cell-based; details: 0.3 μg/mL doxorubicin
[9] = system: human T cell leukemia, human acute myeloid leukemia, human B cell precursor leukemia, human B cell leukemia; assay: Apoptosis in different leukemia cells, D,L-methadone plus cisplatin; format: cell-based
U87MG glioblastoma = U87MG glioblastoma xenograft tumour growth; format: in vivo, nude-mice; details: days 19 to 33
[10] = Tolerability (body weight) in U87MG xenograft mice; details: D,L-methadone 60 to 240 mg/kg/d
[11] = system: apoptosis pathways in glioblastoma-initiating stem cells; assay: Western blot of apoptosis pathways in glioblastoma-initiating stem cells; format: cell-based; details: 3 μg/mL D,L-methadone + 0.1 μg/mL doxorubicin; 144 h
[12] = system: caspase-8, -9, -3, PARP, XIAP, Bcl-xL in JIMT-1 cells; assay: Western blot of apoptosis effectors in JIMT-1; format: cell-based, human; details: D,L-methadone 10, 3, 1 μg/mL + 0.015 μg/mL doxorubicin; 96 h
BCP-ALL-cell line Tanoue [13] = format: cell-based, human; details: for effect on apoptosis rates of combination treatment with D,L-methadone and doxorubicin: 3 μg/mL D,L-methadone + 0.06 μg/mL doxorubicin, 60 μg/mL naloxone, 200 μM IBMX or PTX
[14] = system: Pancreatic cancer cells Colo 357; assay: Cell death in pancreatic cancer cells; format: cell-based
[15] = system: opioid-receptors on BCP-ALL-cell line Tanoue; assay: Flow cytometric cell surface opioid-receptor expression, Tanoue; format: cell-based, human; details: 0.06 μg/mL doxorubicin; 96 h
Protocol: (§1) Cells were washed in PBS supplemented with 1% FCS, centrifuged and resuspended in PBS/1% FCS containing naloxone-fluoresceine (0.05 mM, Invitrogen) (Hedin et al., 1997). After 30 min of incubation at RT, the cells were washed twice with PBS/1% FCS, centrifuged and resuspended in icecold PBS/1% FCS. Flowcytometry analysis was performed using FACSCalibur (BD, Heidelberg, Germany).
(A) Doxorubicin enhances opioid receptor expression on the cells' surface. The BCP-ALL-cell line Tanoue was treated for 96 h with 0.06 μg/mL doxorubicin. After staining of doxorubicin-treated (+Doxo) and untreated cells (−Doxo) with naloxone-fluoresceine relative fluorescence intensities were determined flowcytometrically. X-fold increase in opioid receptor expression is shown after subtracting the cells' autofluorescence (−Doxo) and doxorubicin fluorescence (+Doxo).

[16] = Serum concentrations in ALL-SCID6 xenograft mice; details: male, NOD/SCID/IL2ry null (NSG), mouse, in vivo, 3 mg/kg
ALL-SCID6 xenograft = assay: Patient-derived ALL-xenograft tumour growth; format: in vivo, NOD/SCID/IL2ry null (NSG) mice; details: D,L-methadone orally day 1-76, 20 up to 120 mg/kg/day; doxorubicin 3 mg/kg i.v. day 46, 53, 60, 76
[17] = system: opioid receptor on glioblastoma cell line A172; assay: Opioid receptor expression, A172; format: cell-based; details: 0.1 μg/mL doxorubicin; 106 h
Protocol: as §1
(A) The glioblastoma cell line A172 was treated for 106 h with 0.1 μg/mL doxorubicin. After staining of doxorubicin-treated (doxorubicin) and untreated cells with naloxone-fluorescein (naloxone) relative fluorescence intensities were determined flowcytometrically. (B) Tabular summary of untreated and doxorubicin control cells, naloxone treated cells, whereas D(naloxone-control) represents the median fluorescence intensities after subtracting the cells' autofluorescence (control).

[18] = system: A2780 ovarian cancer cells; assay: Cell death in A2780 ovarian cancer cells; format: cell-based; details: 2 μg/mL cisplatin alone; 144 h
[19] = system: opioid receptor on promyelocytic leukemia cell line HL60; assay: Opioid receptor expression, HL60; format: cell-based, human; details: 0.3 μg/mL cisplatin; 24 h
Protocol: as §1
After staining of cisplatin-treated (+Cisplatin) and untreated cells (−Cisplatin) with naloxone-fluoresceine relative fluorescence intensities were determined flowcytometrically. 2.1-fold increase in opioid receptor expression is shown after subtracting the cells autofluorescence.

## C=CCN1CC[C@]23c4c5ccc(O)c4O[C@H]2C(=O)CC[C@@]3(O)[C@H]1C5 [naloxone]
Glioblastoma cells
  effect on apoptosis rates of combination treatment with D,L-methadone and doxorubicin: strongly reduced the apoptosis rates
[1]
  effect on caspase activation and PARP cleavage by D,L-methadone in addition to doxorubicin: drastically reduced the activation of caspase-9, caspase-2 and caspase-3
[2]; 100 μg/mL naloxone, 120 h
  effect on activation of caspase-9, caspase-3 and cleavage of PARP by combination treatment: strongly reduced
Glioblastoma cells A172; 144 h
  effect on apoptosis induced by combination treatment with D,L-methadone and doxorubicin: strongly reduced apoptosis
[3]; 100 μg/mL naloxone, 10 μg/mL D,L-methadone, 0.01 μg/mL doxorubicin, 96 h
  effect on apoptosis induced by combination treatment with D,L-methadone and doxorubicin: strongly reduced apoptosis; also recorded: strongly inhibits apoptosis induction

## CCC(=O)C(CC(C)N(C)C)(c1ccccc1)c1ccccc1 (racemic) [D,L-methadone, D,L-methadone hydrochloride]
[4]
  body weight changes: −8%
BCP-ALL-cell line Tanoue [5]; 8 h and 24 h after removing doxorubicin
  doxorubicin efflux: reduced the doxorubicin efflux strongly
BCP-ALL-cell line Tanoue [5]; co-incubation with 0.3 μg/mL doxorubicin, 24 h (0 h)
  doxorubicin uptake: enhanced doxorubicin concentration in the cells
[6]
  sensitization for etoposide or cisplatin treatment: sensitizes
[7]
  cell death induction: only be killed slightly
pre-B-ALL-SCID
  cell death induction: only be slightly killed
[2]; D,L-methadone 3, 1 μg/mL + 0.1 μg/mL doxorubicin, 144 h
  caspases activation: restored deficient caspases activation by doxorubicin
[8]
  doxorubicin efflux: inhibit the efflux
[8]; 10 μg/mL D,L-methadone
  doxorubicin uptake: enhance the uptake
[9]; D,L-methadone alone (−CDDP)
  cell death induction: only be killed slightly
U87MG glioblastoma; D,L-methadone orally daily, 60 to 120 to 240 mg/kg/d bid
  optimum T/C value: 49%
U87MG glioblastoma
  tumour size vs vehicle: significantly reduced tumour size
[10]
  body weight loss: 9%
[11]
  activation of apoptosis pathways: reversed deficient activation of apoptosis pathways by doxorubicin
[12]
  caspases activation: restored deficient caspases activation by doxorubicin

## CC(C)Cn1c(=O)n(C)c(=O)c2[nH]cnc21 [IBMX, 3-Isobutyl-1-methylxanthine]
Glioblastoma cells A172; 144 h
  effect on apoptosis induced by combination treatment with D,L-methadone and doxorubicin: strongly reduced apoptosis induction
BCP-ALL-cell line Tanoue [13]; 200 μM IBMX, 0.06 μg/mL doxorubicin, 96 h
  effect on doxorubicin-induced apoptosis: decreased doxorubicin-induced apoptosis
BCP-ALL-cell line Tanoue [13]; 96 h
  effect on apoptosis rates of combination treatment with D,L-methadone and doxorubicin: strongly reduced the apoptosis rates

## CC(C)[C@H](NC(=O)OCc1ccccc1)C(=O)N[C@@H](C)C(=O)N[C@@H](CC(=O)O)C(=O)CF [zVAD.fmk, benzoylcarbonyl-Val-Ala-Asp-fluoromethylketone] (Cbz-Val-Ala-Asp-CH2F)
Glioblastoma cells A172; 50 μmol/L zVAD.fmk, 0.1 μg/mL doxorubicin, 120 h and 144 h
  effect on apoptosis induced by cotreatment of D,L-methadone and doxorubicin: blocks apoptosis
[3]; 50 μmol/L zVAD.fmk, 0.015 μg/mL doxorubicin, 96 h, 120 h
  effect on apoptosis induced by cotreatment of D,L-methadone and doxorubicin: blocks apoptosis
[9]; zVAD.fmk pre-incubation
  effect on cell death after combination treatment with D,L-methadone and cisplatin: strongly decreased cell death
BCP-ALL-cell line Tanoue [13]; 50 μM zVAD.fmk pre-incubation, 0.06 μg/mL doxorubicin, 120 h
  effect on cell death after combination treatment with D,L-methadone and doxorubicin: strongly decreased cell death
[14]; 50 μmol/L zVAD.fmk, cisplatin 0.7 or 0.5 μg/mL
  effect on apoptosis induced by D,L-methadone in addition to cisplatin: almost completely inhibited apoptosis
[14]; 50 μmol/L zVAD.fmk, oxaliplatin 3 or 2 μg/mL
  effect on apoptosis induced by D,L-methadone in addition to oxaliplatin: almost completely inhibited apoptosis

## COc1cccc2c1C(=O)c1c(O)c3c(c(O)c1C2=O)C[C@@](O)(C(=O)CO)C[C@@H]3O[C@H]1C[C@H](N)[C@H](O)[C@H](C)O1 [doxorubicin]
[15]
  opioid-receptor expression: strongly increased opioid-receptor expression
[16]
  serum concentrations of doxorubicin: 156 to 198 ng/mL
[4]
  body weight changes: −4%
Glioblastoma cells A172; 1 μg/mL doxorubicin alone, 144 h
  cell death: 80%
[3]; 0.1 μg/mL doxorubicin alone, 120 h
  cell death: 70%
ALL-SCID6 xenograft
  tumour growth inhibition: significant inhibition of tumour growth
[17]
  increase in opioid receptor expression: 6 fold

## N.N.[Cl][Pt][Cl] [cisplatin]
[18]
  cell death: 90%
[19]
  increase in opioid receptor expression: 2.1 fold
[14]; 10 μg/mL alone, 120 h
  cell death: 60%
[14]; 10 μg/mL cisplatin alone, 144 h
  cell death: 70%

## pertussis toxin [PTX]
BCP-ALL-cell line Tanoue [13]; 96 h
  effect on apoptosis rates of combination treatment with D,L-methadone and doxorubicin: strongly reduced the apoptosis rates
